The values below come from patent US20220313698A1, “MODULATORS OF CYSTIC FIBROSIS TRANSMEMBRANE CONDUCTANCE REGULATOR” (Vertex Pharmaceuticals Incorporated, priority 2019, published 2022).

In the experiment the target is CFTR-mediated chloride transport (Homo sapiens, UniProt P13569). The experiment in a line: Corrector Assay A - membrane potential dye assay (enteroid cells). The conditions noted are these: for Corrector Assay A % activity: % of chloride transport of triple combination control (1 μM (14S)-dispiro macrocycle + 3 μM tezacaftor + 300 nM ivacaftor); for EC50: read-out: Corrector Assay A EC50, human intestinal enteroid cells, 18-24 h incubation, acute 10 μM forskolin + 300 nM ivacaftor.

Procedure: Base medium (ADF+++) consisted of Advanced DMEM/Ham's F12, 2 mM Glutamax, 10 mM HEPES, 1 μg/ml penicillin/streptomycin.
Intestinal enteroid maintenance medium (IEMM) consisted of ADF+++, 1×B27 supplement, 1×N2 supplement, 1.25 mM N-acetyl cysteine, 10 mM Nicotinamide, 50 ng/mL hEGF, 10 nM Gastrin, 1 μg/mL hR-spondin-1, 100 ng/mL hNoggin, TGF-b type 1 inhibitor A-83-01, 100 μg/mL Primocin, 10 μM P38 MAPK inhibitor SB202190.
Bath 1 Buffer consisted of 1 mM MgCl2, 160 mM NaCl, 4.5 mM KCl, 10 mM HEPES, 10 mM Glucose, 2 mM CaCl2).
Chloride Free Buffer consisted of 1 mM Magnesium Gluconate, 2 mM Calcium Gluconate, 4.5 mM Potassium Gluconate, 160 mM Sodium Gluconate, 10 mM HEPES, 10 mM Glucose.
Bath 1 Dye Solution consisted of Bath 1 Buffer, 0.04% Pluronic F127, 20 μM Methyl Oxonol, 30 μM CaCCinh-A01, 30 μM Chicago Sky Blue.
Chloride Free Dye Solution consisted of Chloride Free Buffer, 0.04% Pluronic F127, 20 μM Methyl Oxonol, 30 μM CaCCinh-A01, 30 μM Chicago Sky Blue.
Chloride Free Dye Stimulation Solution consisted of Chloride Free Dye Solution, 10 μM forskolin, 100 μM IBMX, and 300 nM Ivacaftor.
Cells were recovered in cell recovery solution, collected by centrifugation at 650 rpm for 5 min at 4° C., resuspended in TryPLE and incubated for 5 min at 37° C. Cells were then collected by centrifugation at 650 rpm for 5 min at 4° C. and resuspended in IEMM containing 10 μM ROCK inhibitor (RI). The cell suspension was passed through a 40 μm cell strainer and resuspended at 1×10^6 cells/mL in IEMM containing 10 μM RI. Cells were seeded at 5000 cells/well into multi-well plates and incubated for overnight at 37° C., 95% humidity and 5% CO2 prior to assay.
Briefly, cells were washed 5 times in Bath 1 Buffer. Bath 1 Dye Solution was added and the cells were incubated for 25 min at room temperature. Following dye incubation, cells were washed 3 times in Chloride Free Dye Solution. Chloride transport was initiated by addition of Chloride Free Dye Stimulation Solution and the fluorescence signal was read for 15 min. The CFTR-mediated chloride transport for each condition was determined from the AUC of the fluorescence response to acute forskolin and 300 nM N-[2,4-bis(1,1-dimethylethyl)-5-hydroxyphenyl]-1,4-dihydro-4-oxoquinoline-3-carboxamide stimulation. Chloride transport was then expressed as a percentage of the chloride transport following treatment with 1 μM (14S)-8-[3-(2-{Dispiro[2.0.2.1]heptan-7-yl}ethoxy)-1H-pyrazol-1-yl]-12,12-dimethyl-2λ^6-thia-3,9,11,18,23-pentaazatetracyclo[17.3.1.111,14.05,10]tetracosa-1(22),5,7,9,19(23),20-hexaene-2,2,4-trione, 3 μM (R)-1-(2,2-difluorobenzo[d][1,3]dioxol-5-yl)-N-(1-(2,3-dihydroxypropyl)-6-fluoro-2-(1-hydroxy-2-methylpropan-2-yl)-1H-indol-5-yl)cyclopropanecarboxamide and 300 nM acute N-[2,4-bis(1,1-dimethylethyl)-5-hydroxyphenyl]-1,4-dihydro-4-oxoquinoline-3-carboxamide triple combination control (% Activity).

What is called EC50 is the midpoint of the concentration-response curve. As to `CC(C)C1CC[C@@H]2CN(c3nc(C(C)(C)C)ccc3C(=O)NS(=O)(=O)c3cccc(n3)N1)C(C)(C)C2` (single isomer, unassigned) [Compound 287], the “Corrector Assay A % activity” value is reported as “+++ (+++ is >60%)” and the EC50 was below 1000 nM.

With `CC(C)(C)c1ccc2c(n1)N1C[C@@H](CC[C@@H](C3CCCCC3)Nc3cccc(n3)S(=O)(=O)NC2=O)CC1(C)C` (single isomer, unassigned) [Compound 234], the “Corrector Assay A % activity” value is “++ (++ is 30-60%)” and the half-maximal effective concentration (EC50) is below 1000 nM.

For the compound `CC1(C)C[C@@H]2CC[C@@H](c3ccccn3)Nc3cccc(n3)S(=O)(=O)NC(=O)c3ccc(Br)nc3N1C2` [Compound 247, (14S,17S)-8-bromo-12,12-dimethyl-17-(pyridin-2-yl)-2λ^6-thia-3,9,11,18,23-pentaazatetracyclo[17.3.1.111,14.05,10]tetracosa-1(22),5,7,9,19(23),20-hexaene-2,2,4-trione], the “Corrector Assay A % activity” value is recorded as “+ (+ is <30%)” and the concentration giving a half-maximal response (EC50) was below 1000 nM.

For `CC1(C)CCCc2cc3c(nc21)N1C[C@@H](CCC(c2ccccn2)Nc2cccc(n2)S(=O)(=O)NC3=O)CC1(C)C` (single isomer, unassigned) [Compound 264], the “Corrector Assay A % activity” value is “++ (++ is 30-60%)” and the half-maximal effective concentration (EC50) was below 1000 nM.

Regarding `CC(C)(C)c1ccc2c(n1)N1C[C@@H](CC[C@H](c3cccc(CCCN)n3)Nc3cccc(n3)S(=O)(=O)NC2=O)CC1(C)C` [Compound 134, (14S,17R)-17-[6-(3-aminopropyl)pyridin-2-yl]-8-tert-butyl-12,12-dimethyl-2λ^6-thia-3,9,11,18,23-pentaazatetracyclo[17.3.1.111,14.05,10]tetracosa-1(23),5(10),6,8,19,21-hexaene-2,2,4-trione], the “Corrector Assay A % activity” value is on record as “+++ (+++ is >60%)” and the concentration for a half-maximal effect (EC50) is below 1000 nM.

Turning to `CC(C)(C)c1ccnc([C@H]2CC[C@@H]3CN(c4nc(-c5cccc(OCC6CCC6)n5)ccc4C(=O)NS(=O)(=O)c4cccc(n4)N2)C(C)(C)C3)c1` [Compound 302, (14S,17R)-17-(4-tert-butylpyridin-2-yl)-8-[6-(cyclobutylmethoxy)pyridin-2-yl]-12,12-dimethyl-2λ^6-thia-3,9,11,18,23-pentaazatetracyclo[17.3.1.111,14.05,10]tetracosa-1(22),5,7,9,19(23),20-hexaene-2,2,4-trione], the “Corrector Assay A % activity” value is listed as “+++ (+++ is >60%)” and the EC50 is below 1000 nM.

`CC(C)(C)c1ccc2c(n1)N1C[C@@H](CCC(c3cc(N)ccn3)Nc3cccc(n3)S(=O)(=O)NC2=O)CC1(C)C` (single isomer, unassigned) [Compound 48]: the “Corrector Assay A % activity” value was “++ (++ is 30-60%)” and the concentration giving a half-maximal response (EC50) was in the range of 1000 to 3000 nM.

With `CC1CCC2CN(c3nc(C(C)(C)C)ccc3C(=O)NS(=O)(=O)c3ccn1n3)C(C)(C)C2` (single isomer, unassigned) [Compound 272], the “Corrector Assay A % activity” value was “+++ (+++ is >60%)” and the EC50 was below 1000 nM.

On to `COc1cccc(-c2ccc3c(n2)N2C[C@@H](CC[C@H](c4ccccn4)Nc4cccc(n4)S(=O)(=O)NC3=O)CC2(C)C)c1` [Compound 339], for which the “Corrector Assay A % activity” value is listed as “+++ (+++ is >60%)” and the EC50 is below 1000 nM.

As to `CC(C)(C)c1ccc2c(n1)N1C[C@@H](CCC(c3ccncc3)Nc3cccc(n3)S(=O)(=O)NC2=O)CC1(C)C` (single isomer, unassigned) [Compound 233], the “Corrector Assay A % activity” value was “++ (++ is 30-60%)” and the EC50 was below 1000 nM.

Consider `CC(C)(C)c1ccc2c(n1)N1C[C@@H](CC[C@H](c3cccc(C4CCOCC4)n3)Nc3cccc(n3)S(=O)(=O)NC2=O)CC1(C)C` [Compound 148], for which the “Corrector Assay A % activity” value is given as “+++ (+++ is >60%)” and the concentration for a half-maximal effect (EC50) was below 1000 nM.

Consider `COc1ccn(-c2ccc3c(n2)N2C[C@@H](CC[C@H](c4ccccn4)Nc4cccc(n4)S(=O)(=O)NC3=O)CC2(C)C)n1` [Compound 335], for which the “Corrector Assay A % activity” value is listed as “+++ (+++ is >60%)” and the 50% effective concentration (EC50) is below 1000 nM.

Turning to `CC1(C)C[C@@H]2CC[C@@H](c3ccccn3)Nc3cccc(n3)S(=O)(=O)NC(=O)c3ccc(Cc4ccccc4)nc3N1C2` [Compound 160], the “Corrector Assay A % activity” value is recorded as “++ (++ is 30-60%)” and the EC50 is below 1000 nM.

Turning to `CC(C)(C)c1ccc2c(n1)N1C[C@@H](CCC(c3cc(C4COC4)ccn3)Nc3cccc(n3)S(=O)(=O)NC2=O)CC1(C)C` (single isomer, unassigned) [Compound 25], the “Corrector Assay A % activity” value is listed as “+++ (+++ is >60%)” and the EC50 is below 1000 nM.

`CC(C)(C)c1ccc2c(n1)N1C[C@@H](CCC(c3ncccc3Cl)Nc3cccc(n3)S(=O)(=O)NC2=O)CC1(C)C` (single isomer, unassigned) [Compound 66]: the “Corrector Assay A % activity” value is “+ (+ is <30%)” and the concentration giving a half-maximal response (EC50) was above 3000 nM.

With `COC(=O)NCc1ccc(C2CC[C@@H]3CN(c4nc(C(C)(C)C)ccc4C(=O)NS(=O)(=O)c4cccc(n4)N2)C(C)(C)C3)nc1` (stereo partly drawn) [Compound 89, Methyl N-({6-[(14S)-8-tert-butyl-12,12-dimethyl-2,2,4-trioxo-2λ^6-thia-3,9,11,18,23-pentaazatetracyclo[17.3.1.111,14.05,10]tetracosa-1(23),5(10),6,8,19,21-hexaen-17-yl]pyridin-3-yl}methyl)carbamate], the “Corrector Assay A % activity” value is reported as “++ (++ is 30-60%)” and the EC50 is below 1000 nM.

Consider `CC(C)(C)c1ccc2c(n1)N1CC(CCCNc3cc(O)cc(n3)S(=O)(=O)NC2=O)CC1(C)C` (single isomer, unassigned) [Compound 250, 8-tert-butyl-21-hydroxy-12,12-dimethyl-2λ^6-thia-3,9,11,18,23-pentaazatetracyclo[17.3.1.111,14.05,10]tetracosa-1(23),5,7,9,19,21-hexaene-2,2,4-trione], for which the “Corrector Assay A % activity” value is recorded as “++ (++ is 30-60%)” and the EC50 is below 1000 nM.

For `CC(C)(C)c1ccc2c(n1)N1C[C@@H](CCC(CC(O)CO)Nc3cccc(n3)S(=O)(=O)NC2=O)CC1(C)C` (single isomer, unassigned) [Compound 30], the “Corrector Assay A % activity” value is reported as “++ (++ is 30-60%)” and the EC50 was below 1000 nM.

In the case of `CC(C)(C)c1ccc2c(n1)N1C[C@@H](CCC(C(C)(C)C)Nc3cccc(n3)S(=O)(=O)NC2=O)CC1(C)C` (single isomer, unassigned) [Compound 244], the “Corrector Assay A % activity” value is on record as “+++ (+++ is >60%)” and the half-maximal effective concentration (EC50) was below 1000 nM.

Turning to `CC(C)(C)c1ccc2c(n1)N1C[C@@H](CCC(c3cccnc3)Nc3cccc(n3)S(=O)(=O)NC2=O)CC1(C)C` (single isomer, unassigned) [Compound 282], the “Corrector Assay A % activity” value is on record as “+++ (+++ is >60%)” and the concentration giving a half-maximal response (EC50) was below 1000 nM.

For the compound `CC(C)(C)CCOc1ccn(-c2ccc3c(n2)N2C[C@@H](CC[C@H](c4cccc(C(F)(F)F)n4)Nc4cccc(n4)S(=O)(=O)NC3=O)CC2(C)C)n1` [Compound 306, (14S,17R)-8-[3-(3,3-dimethylbutoxy)-1H-pyrazol-1-yl]-12,12-dimethyl-17-[6-(trifluoromethyl)pyridin-2-yl]-2λ^6-thia-3,9,11,18,23-pentaazatetracyclo[17.3.1.111,14.05,10]tetracosa-1(22),5,7,9,19(23),20-hexaene-2,2,4-trione], the “Corrector Assay A % activity” value is recorded as “++ (++ is 30-60%)” and the EC50 is below 1000 nM.

For the compound `CN1CCC(C2CC[C@@H]3CN(c4nc(C(C)(C)C)ccc4C(=O)NS(=O)(=O)c4cccc(n4)N2)C(C)(C)C3)CC1` (single isomer, unassigned) [Compound 241], the “Corrector Assay A % activity” value is on record as “++ (++ is 30-60%)” and the EC50 was below 1000 nM.

Turning to `CC(C)(C)OC(=O)NCc1ccnc(C2CC[C@@H]3CN(c4nc(C(C)(C)C)ccc4C(=O)NS(=O)(=O)c4cccc(n4)N2)C(C)(C)C3)c1` (single isomer, unassigned) [Compound 120], the “Corrector Assay A % activity” value is listed as “+++ (+++ is >60%)” and the concentration giving a half-maximal response (EC50) was below 1000 nM.

Regarding `CC(C)(C)c1ccc2c(n1)N1C[C@@H](CCC(CC(O)CO)Nc3cccc(n3)S(=O)(=O)NC2=O)CC1(C)C` (single isomer, unassigned) [Compound 31], the “Corrector Assay A % activity” value is “++ (++ is 30-60%)” and the EC50 is below 1000 nM.

For the compound `CC(C)N(C(=O)CCCC1CC[C@@H]2CN(c3nc(C(C)(C)C)ccc3C(=O)NS(=O)(=O)c3cccc(n3)N1)C(C)(C)C2)C(C)C` (stereo partly drawn) [Compound 17, 4-[(14S)-8-tert-butyl-12,12-dimethyl-2,2,4-trioxo-2λ^6-thia-3,9,11,18,23-pentaazatetracyclo[17.3.1.111,14.05,10]tetracosa-1(23),5(10),6,8,19,21-hexaen-17-yl]-N,N-bis(propan-2-yl)butanamide], the “Corrector Assay A % activity” value is given as “+++ (+++ is >60%)” and the 50% effective concentration (EC50) is below 1000 nM.

As for `CC(C)(C)c1ccc2c(n1)N1C[C@@H](CCC(c3ccc(C4COC4)cn3)Nc3cccc(n3)S(=O)(=O)NC2=O)CC1(C)C` (single isomer, unassigned) [Compound 39], the “Corrector Assay A % activity” value is on record as “+++ (+++ is >60%)” and the concentration giving a half-maximal response (EC50) was below 1000 nM.

For the compound `CC(C)(C)c1ccc2c(n1)N1C[C@@H](CCC(c3ccc(C#N)cn3)Nc3cccc(n3)S(=O)(=O)NC2=O)CC1(C)C` (stereo partly drawn) [Compound 204], the “Corrector Assay A % activity” value is recorded as “+++ (+++ is >60%)” and the EC50 is below 1000 nM.

Consider `CN(C)Cc1cccc([C@H]2CC[C@@H]3CN(c4nc(C(C)(C)C)ccc4C(=O)NS(=O)(=O)c4cccc(n4)N2)C(C)(C)C3)n1` [Compound 99], for which the “Corrector Assay A % activity” value is listed as “++ (++ is 30-60%)” and the EC50 was below 1000 nM.

Turning to `CC(C)(C)c1ccc2c(n1)N1C[C@@H](CC[C@@H](c3cccc(CCCN)n3)Nc3cccc(n3)S(=O)(=O)NC2=O)CC1(C)C` [Compound 133], the “Corrector Assay A % activity” value is on record as “+ (+ is <30%)” and the EC50 is below 1000 nM.

On to `CC(C)(C)c1ccc2c(n1)N1C[C@@H](CCC(c3ccc(C4=CCOCC4)cn3)Nc3cccc(n3)S(=O)(=O)NC2=O)CC1(C)C` (stereo partly drawn) [Compound 167], for which the “Corrector Assay A % activity” value is listed as “++ (++ is 30-60%)” and the half-maximal effective concentration (EC50) was below 1000 nM.
